The text below walks through data of patent US12662458B2, “Solid forms of a compound” (Denali Therapeutics Inc., priority 2020, dated 2026).

Values after ≈ are worked out from the molar mass of the structure shown.

A short description of data set [1]: Slurry interconversion of Form A and Form C. The data set is classed as physicochemical. The method, then:
Form A slurry converts to Form C in the presence of Form C seed. For example, Form A (10 mg) and Form C (10 mg) were stirred in saturated IPA/water and MeCN/water at temperatures ranging from 5-60° C. […] Form A could only be prepared in a location uncontaminated with Form C (e.g., locations where From C had not previously existed).

Data set [2] is described as follows: Solid form stability on storage. The data set is classed as physicochemical. The method, then:
To evaluate the solid form stability, Forms A and C were stored under 25° C./60% RH (open), 40° C./75% RH (open), and 60° C. for up to 4 weeks. Samples were analyzed by XRPD, TGA, DSC, and HPLC purity.

Data set [3] in a line: Plasma PK in monkeys, nanosuspension. Format: in vivo. The note with it: male, cynomolgus monkey, po, 25 mg/kg, nanosuspension in deionized water, single oral 25 mg/kg. Here is the method: Non-naïve male cynomolgus monkeys were used in this study with at least a 7-day washout period prior to dosing Animals were administered a nanosuspension of Form C as a single oral administration at 25 mg/kg. The nanosuspension was prepared by suspending nano-milled Form C in deionized water (5 mg/mL) to obtain an opaque homogenous suspension. Blood samples were collected at 0.25, 0.5, 1, 2, 4, 8, 24, 48, and 72 hours post-dose. Concentrations of Compound I in plasma samples were determined by LC/MS/MS.
A separate study was performed for a nanosuspension of Form A.

The nature of data set [4]: Biorelevant media solubility of Forms A and C. Format: physicochemical. The note with it: for Solubility / Final XRPD: 37° C. The method, then: Biorelevant media solubility of Forms A and C were studied in water, SGF, FaSSIF, and FeSSIF at 37° C. 10-20 mg of Form A or C was weighed into 2-3 mL glass vials and media was added to achieve a solids loading of ˜5 mg/mL. Each slurry was magnetically agitated at 750-1000 rpm at 37° C., filtered via centrifugation, and the supernatant was analyzed by HPLC to determine solubility. In all cases, there was no polymorphic form change observed by XRPD analysis of the filtered solids.

Data set [5] can be described thus: Dynamic vapor sorption (hygroscopicity). Format: physicochemical. The note with it: DVS. The method, then: DVS analysis was carried out using a Surface Measurement System DVS Intrinsic analyzer. The instrument was calibrated with standard weights. Approximately 15-20 mg of sample was loaded into a pan for analysis. The sample was analyzed at 25° C. in 10% relative humidity (RH) steps from 0 to 95% RH (adsorption cycle) and from 95 to 0% RH (desorption cycle). The movement from one step to the next occurred either after satisfying the equilibrium criterion of 0.002% weight change (dm/dt) or, if the equilibrium criterion was not met, after ten hours.

A short description of data set [6]: Plasma PK in monkeys, powder in capsule. Conditions: male, cynomolgus monkey, po, 15 mg/kg, single oral 15 mg/kg; for AUC(0-t): read-out: AUC0-24 h; for Tmax: read-out: Tmax. The data set is classed as in vivo. The method, then:
Non-naïve male cynomolgus monkeys were used in this study with at least a 7-day washout period prior to dosing Animals were administered micronized Form A, unmicronized Form A, or micronized Form C powder in capsule by single oral administration at 15 mg/kg. The capsules were prepared according to the animals' body weights on dosing day. Blood samples were collected at 0.25, 0.5, 1, 2, 4, 8, 24, 48, and 72 hours post-dose.

Data set [7] in a line: Plasma PK in rats, nanosuspension. The data set is classed as in vivo. Conditions: rat, nanosuspension in deionized water, single oral 25 mg/kg. Here is the method: Wistar Han rats were administered a nanosuspension of Form A or Form C as a single oral administration at 25 mg/kg. The nanosuspensions were prepared by suspending nano-milled Form A or Form C in deionized water (2.5 mg/mL) to obtain opaque homogenous suspensions. Blood samples were collected at 0.25, 0.5, 1, 2, 4, 8, 24, 48, and 72 hours post-dose. Concentrations of Compound I in plasma samples were determined by LC/MS/MS.

The subject of data set [8] is ISR pathway (H4 ATF4-NLuc cell line). In words: ATF4 Nano Luciferase reporter integrated stress response (ISR) assay. The data set is classed as cell-based. Conditions: Homo sapiens; H4 ATF4-NLuc (clone 17) cells, 50 um sodium arsenite 6 hours, luminescence. The source says: Cellular stress leads to activation of the integrated stress response pathway through one of four eukaryotic initiation factor 2α kinases and halts global translation, while allowing for the translation of select transcripts like ATF4 (activating transcription factor 4) that are important for the response to cellular stress. During normal conditions, small open reading frames (ORFs) in the 5′ UTR of ATF4 occupy the ribosome and prevent translation of the coding sequence of ATF4. During stress conditions however, the ribosome scans past these upstream ORFs and preferentially begins translation at the coding sequence of ATF4. In this way, the translation, and thus protein level of ATF4 is a readout of ISR pathway activation. Thus, a fusion of the uORFs and the beginning of the coding sequence of ATF to a common cellular reporter like nano-luciferase allows for a sensitive and high-throughput readout of ISR pathway activity.
Compound I, or any of its forms described herein, may be tested in the following assay. […] We utilized this cell line to generate an integrated stress response (ISR) assay to evaluate the activity of ISR pathway inhibitors via luminescence readout. […]
In general terms: A reporter such as luciferase makes a cellular process visible.

Data set [9] can be described thus: Storage stability of amorphous Form D. Format: physicochemical. Here is the method: Form A was kept in an oven at 150° C. until all solids melted. The melt was kept at 150° C. for 5 minutes and was then taken out of the oven and cooled to room temperature.

As to `O=C(COc1ccc(Cl)cc1)NC12CC(c3nnc([C@H]4C[C@@H](OC(F)(F)F)C4)o3)(C1)C2` (single isomer, unassigned) [Form A, 2-(4-chlorophenoxy)-N-[3-[5-[cis-3-(trifluoromethoxy)cyclobutyl]-1,3,4-oxadiazol-2-yl]-1-bicyclo[1.1.1]pentanyl]acetamide], the “Results (solid form after slurry)” value was “Form C” in [1] (ACN/water (1:2), 5 ° C., 8 day); “Form C” in [1] (ACN/water (1:2), 22 ° C., 8 day); “Form C” in [1] (ACN/water (1:2), 60 ° C., 6 day); “Form C” in data set [1] (IPA/water (1:1), 5 ° C., 8 day); “Form C” in data set [1] (IPA/water (1:1), 22 ° C., 8 day); “Form C” in data set [1] (IPA/water (1:1), 60 ° C., 6 day). The “solid form after slurry by XRPD and DSC” value in [1] (Form A (10 mg) and Form C (10 mg) in saturated IPA/water and MeCN/water, 5-60° C., 6-8 days) was “only Form C was present”. The DSC endotherm in [2] (25° C./60% RH (open), 1 week) was determined as 125.6 °C; in data set [2] (25° C./60% RH (open), 4 week) it was 125.3 °C; in data set [2] (40° C./75% RH (open), 1 week), 125.4 °C; in data set [2] (40° C./75% RH (open), 4 week), 125.1 °C; in data set [2] (60° C. (open), 1 week), 125.2 °C; in data set [2] (60° C. (open), 4 week) it was 125.1 °C. Moreover, in data set [2] (Initial), the DSC endotherm was found to be 125.0 °C. In addition, the HPLC purity is 99.3% in data set [2] (25° C./60% RH (open), 1 week); 98.8% in data set [2] (25° C./60% RH (open), 4 week); 99.3% in data set [2] (40° C./75% RH (open), 1 week); 98.7% in data set [2] (40° C./75% RH (open), 4 week); 99.3% in data set [2] (60° C. (open), 1 week); 98.8% in data set [2] (60° C. (open), 4 week). The compound further had an HPLC purity in data set [2] (Initial) of 98.5%. Further, the “TGA loss (%, to 150° C.)” value was determined as 1.8% in data set [2] (25° C./60% RH (open), 1 week); 0.6% in data set [2] (25° C./60% RH (open), 4 week); 0.9% in data set [2] (40° C./75% RH (open), 1 week); 0.7% in data set [2] (40° C./75% RH (open), 4 week); 0.7% in data set [2] (60° C. (open), 1 week); 0.6% in [2] (60° C. (open), 4 week). For the same compound, the “TGA loss (%, to 150° C.)” value in data set [2] (Initial) is reported as 0.4%. In addition, the XRPD entry is “Form A” in data set [2] (25° C./60% RH (open), 1 week); “Form A” in [2] (25° C./60% RH (open), 4 week); “Form A” in [2] (40° C./75% RH (open), 1 week); “Form A” in data set [2] (40° C./75% RH (open), 4 week); “Form A” in [2] (60° C. (open), 1 week); “Form A” in data set [2] (60° C. (open), 4 week). The XRPD entry in data set [2] (Initial) was “Form A”. The “solid form stability (form change, weight gain, purity changes)” value in [2] (25° C./60% RH (open), 40° C./75% RH (open), 60° C., up to 4 weeks) was “No form change, weight gain, or purity changes”. For the same compound, the Cmax in data set [3] was determined as 25.4 ± 4.1 µM; in data set [6] (micronized (d90 5)), 9.8 ± 4.1 µM; in data set [6] (unmicronized (d90 43)), 5.6 ± 0.4 µM; in data set [7] (Wistar Han, po, 25 mg/kg), 105 ± 8 µM. Further, the AUC(0-t) in data set [3] (read-out: AUC0-24 h) was determined as 451 ± 84 µM·h; in [6] (micronized (d90 5)) it was 154 ± 44 µM·h; in data set [6] (unmicronized (d90 43)), 92 ± 24 µM·h; in data set [7] (Wistar Han, po, 25 mg/kg, read-out: AUC0-48 h), 1700 ± 271 µM·h. Moreover, the Tmax was 4 h in [3] (read-out: Tmax); 8 h in [6] (micronized (d90 5)); 4 h in [6] (unmicronized (d90 43)); 8 h in data set [7] (Wistar Han rats, read-out: Tmax). Besides, the Solubility in [4] (FaSSIF) turned out to be 25 µg/mL (≈ 54.6 µM); in data set [4] (FeSSIF), 44 µg/mL (≈ 96.1 µM); in data set [4] (SGF), 46 µg/mL (≈ 100 µM); in [4] (Water), 9.7 µg/mL (≈ 21.2 µM). In addition, the “Final XRPD” value in data set [4] (filtered solids after slurry in FaSSIF), in data set [4] (filtered solids after slurry in FeSSIF), in [4] (filtered solids after slurry in SGF) and in data set [4] (filtered solids after slurry in Water) was “Form A” in each case. For the same compound, the aqueous solubility result in [4] (listed as Compound I Form A) is listed as “about 9.7 microgram/mL”. Further, in [5], the Hygroscopicity result is “Non-hygroscopic”. The “weight change / form change after exposure to humidity” value in [5] is listed as “no form change”.
In data set [8], `O=C(COc1ccc(Cl)cc1)NC12CC(c3nnc([C@H]4C[C@@H](OC(F)(F)F)C4)o3)(C1)C2` [Compound I, 2-(4-chlorophenoxy)-N-[3-[5-[cis-3-(trifluoromethoxy)cyclobutyl]-1,3,4-oxadiazol-2-yl]-1-bicyclo[1.1.1]pentanyl]acetamide] displayed an IC50 of less than 1000 nM.
Take `O=C(COc1ccc(Cl)cc1)NC12CC(c3nnc([C@H]4C[C@@H](OC(F)(F)F)C4)o3)(C1)C2` [Form D, 2-(4-chlorophenoxy)-N-[3-[5-[cis-3-(trifluoromethoxy)cyclobutyl]-1,3,4-oxadiazol-2-yl]-1-bicyclo[1.1.1]pentanyl]acetamide]: the “storage stability of form” value in [9] (standing at room temperature or higher (25° C.-50° C.) for several days) is listed as “convert to Form C”; in data set [9] (stored at 5° C.) it was “stable for 7 days”; in [9] (stored at RT-60° C., 7 days), “converted to Form C”.

The Cmax is the highest concentration seen after dosing. The term Tmax denotes the time from dosing to the highest level. Broadly, the Solubility is how much of the substance goes into solution per volume. Lower therefore signals a poorly soluble substance. In general, IC50 refers to the midpoint of a concentration-inhibition curve. Read a low IC50 as inhibition by little substance.
